Measurements: ChEMBL document CHEMBL4627276, “CT2-3, a novel magnolol analogue suppresses NSCLC cells through triggering cell cycle arrest and apoptosis” (Bioorg Med Chem, 2020)
Active and inactive are the calls of the source. The rule behind the calls is not given here.

Assays:
[1] = system: NCI-H460; test: Antiproliferative activity against human H460 cells assessed as inhibition of cell viability at 40 uM incubated for 24 hrs by CCK-8 assay; type: functional, cell-based
[2] = system: A549; test: Antiproliferative activity against human A549 cells assessed as inhibition of cell viability at 40 uM incubated for 24 hrs by CCK-8 assay; type: functional, cell-based
[3] = system: A549; test: Inhibition of colony formation in human A549 cells at 20 uM incubated for 48 hrs and measured after 10 days culturing in normal media by Giemsa staining based inverted microscopy; type: functional, cell-based
[4] = system: NCI-H460; test: Antiproliferative activity against human H460 cells assessed as inhibition of cell viability incubated for 24 hrs by CCK-8 assay; type: functional, cell-based; details: for IC50: NCI-H460, 24 h
[5] = system: A549; test: Antiproliferative activity against human A549 cells assessed as inhibition of cell viability incubated for 24 hrs by CCK-8 assay; type: functional, cell-based; details: for IC50: A549, 24 h
[6] = system: NCI-H460; test: Inhibition of colony formation in human H460 cells at 20 uM incubated for 48 hrs and measured after 10 days culturing in normal media by Giemsa staining based inverted microscopy; type: functional, cell-based
[7] = system: NCI-H460; test: Cell cycle arrest in human H460 cells assessed as accumulation of cells at G1 phase at 40 uM incubated for 24 hrs by PI staining based flow cytometric analysis; type: functional
[8] = system: NCI-H460; test: Downregulation of TOP3B mRNA expression in human H460 cells incubated for 24 hrs by RT-qPCR analysis; type: functional, cell-based
[9] = system: NCI-H460; test: Downregulation of CDK4 mRNA expression in human H460 cells at 40 uM after 24 hrs by RT-qPCR analysis; type: functional, cell-based
[10] = system: NCI-H460; test: Induction of apoptosis in human H460 cells assessed as necrotic cell at 40 uM incubated for 24 hrs by Annexin V-FITC/propidium iodide staining based flow cytometric method (reference value: 2.1%); type: functional
[11] = system: NCI-H460; test: Induction of apoptosis in human H460 cells assessed as early apoptotic cells at 40 uM incubated for 24 hrs by Annexin V-FITC/propidium iodide staining based flow cytometric method (reference value: 2.4%); type: functional
[12] = system: A549; test: Induction of apoptosis in human A549 cells assessed as live cells at 40 uM incubated for 24 hrs by Annexin V-FITC/propidium iodide staining based flow cytometric method (reference value: 95.6%); type: functional
[13] = system: A549; test: Induction of apoptosis in human A549 cells assessed as early apoptotic cells at 40 uM incubated for 24 hrs by Annexin V-FITC/propidium iodide staining based flow cytometric method (reference value: 0.3%); type: functional
[14] = system: NCI-H460; test: Downregulation of TOP3B protein expression in human H460 cells at 40 uM incubated for 24 hrs by western blot analysis; type: functional, cell-based
[15] = system: NCI-H460; test: Induction of apoptosis in human H460 cells assessed as late apoptotic cells at 20 uM incubated for 24 hrs by Annexin V-FITC/propidium iodide staining based flow cytometric method (reference value: 4.3%); type: functional
[16] = system: A549; test: Induction of apoptosis in human A549 cells assessed as live cells at 20 uM incubated for 24 hrs by Annexin V-FITC/propidium iodide staining based flow cytometric method (reference value: 95.6%); type: functional
[17] = system: NCI-H460; test: Induction of apoptosis in human H460 cells assessed as late apoptotic cells at 40 uM incubated for 24 hrs by Annexin V-FITC/propidium iodide staining based flow cytometric method (reference value: 4.3%); type: functional
[18] = system: NCI-H460; test: Induction of ROS generation in human H460 cells incubated for 24 hrs by DCFH-DA staining based fluorescence microscopy; type: functional, cell-based
[19] = system: A549; test: Antiproliferative activity against human A549 cells assessed as cell viability at 40 uM incubated for 24 hrs by CCK-8 assay; type: functional; details: A549, 24 h, read-out: Activity
[20] = system: NCI-H460; test: Downregulation of c-Myc mRNA expression level in human H460 cells incubated for 24 hrs by RT-qPCR analysis; type: functional, cell-based
[21] = system: NCI-H460; test: Induction of apoptosis in human H460 cells assessed as live cells at 20 uM incubated for 24 hrs by Annexin V-FITC/propidium iodide staining based flow cytometric method (reference value: 91.2%); type: functional
[22] = system: NCI-H460; test: Induction of apoptosis in human H460 cells assessed as early apoptotic cells at 20 uM incubated for 24 hrs by Annexin V-FITC/propidium iodide staining based flow cytometric method (reference value: 2.4%); type: functional
[23] = system: NCI-H460; test: Antiproliferative activity against human H460 cells assessed as cell viability at 40 uM incubated for 24 hrs by CCK-8 assay; type: functional; details: NCI-H460, 24 h, read-out: Activity
[24] = system: A549; test: Induction of ROS generation in human A549 cells incubated for 24 hrs by DCFH-DA staining based fluorescence microscopy; type: functional, cell-based
[25] = system: NCI-H460; test: Downregulation of TOP2B protein expression in human H460 cells at 40 uM incubated for 24 hrs by western blot analysis; type: functional, cell-based
[26] = system: NCI-H460; test: Induction of apoptosis in human H460 cells assessed as live cells at 40 uM incubated for 24 hrs by Annexin V-FITC/propidium iodide staining based flow cytometric method (reference value: 91.2%); type: functional
[27] = system: NCI-H460; test: Downregulation of c-Myc protein expression level in human H460 cells at 40 uM incubated for 24 hrs by western blot analysis; type: functional, cell-based
[28] = system: A549; test: Induction of apoptosis in human A549 cells assessed as late apoptotic cells at 40 uM incubated for 24 hrs by Annexin V-FITC/propidium iodide staining based flow cytometric method (reference value: 1.7%); type: functional
[29] = system: A549; test: Induction of apoptosis in human A549 cells assessed as necrotic cell at 20 uM incubated for 24 hrs by Annexin V-FITC/propidium iodide staining based flow cytometric method (reference value: 2.4%); type: functional
[30] = system: NCI-H460; test: Induction of apoptosis in human H460 cells assessed as necrotic cell at 20 uM incubated for 24 hrs by Annexin V-FITC/propidium iodide staining based flow cytometric method (reference value: 2.1%); type: functional
[31] = Cytotoxicity against mouse MFF cells assessed as inhibition of cell viability after 24 hrs; type: cell-based
[32] = system: A549; test: Induction of apoptosis in human A549 cells assessed as necrotic cell at 40 uM incubated for 24 hrs by Annexin V-FITC/propidium iodide staining based flow cytometric method (reference value: 2.4%); type: functional
[33] = system: A549; test: Induction of apoptosis in human A549 cells assessed as late apoptotic cells at 20 uM incubated for 24 hrs by Annexin V-FITC/propidium iodide staining based flow cytometric method (reference value: 1.7%); type: functional
[34] = system: NCI-H460; test: Downregulation of TOP2B mRNA expression in human H460 cells incubated for 24 hrs by RT-qPCR analysis; type: functional, cell-based
[35] = system: NCI-H460; test: Downregulation of CDK6 mRNA expression in human H460 cells at 40 uM after 24 hrs by RT-qPCR analysis; type: functional, cell-based
[36] = system: NCI-H460; test: Downregulation of Cyclin D1 mRNA expression in human H460 cells at 40 uM after 24 hrs by RT-qPCR analysis; type: functional, cell-based
[37] = system: A549; test: Induction of apoptosis in human A549 cells assessed as early apoptotic cells at 20 uM incubated for 24 hrs by Annexin V-FITC/propidium iodide staining based flow cytometric method (reference value: 0.3%); type: functional

## C=CCc1ccc(O)c(-c2cc(CC=C)ccc2OCCS(=O)(=O)CCCCN2C(=O)c3ccccc3C2=O)c1
[1]
  Activity: inactive
[2]
  Activity: inactive

## C=CCc1ccc(O)c(-c2cc(CC=C)ccc2O)c1 [MAGNOLOL]
[1]
  Activity: inactive
[2]
  Activity: inactive
[3]
  inhibition: inactive
[4]
  IC50: > 80 µM
[5]
  IC50: > 80 µM
[6]
  inhibition: inactive

## C=CCc1ccc(O)c(-c2cc(CC=C)ccc2OCCSCCCCN2C(=O)c3ccccc3C2=O)c1
[1]
  Activity: inactive
[2]
  Activity: inactive

## C=CCc1ccc(O)c(-c2cc(CC=C)ccc2OCC[S+]([O-])CCCCN2C(=O)c3ccccc3C2=O)c1 (configuration not stated)
[7]
  Activity: Active
[8]
  inhibition: Active
[9]
  inhibition: Active
[10]
  Activity: 9.6%
[11]
  Activity: 5.7%
[12]
  Activity: 56.7%
[13]
  Activity: 0.8%
[14]
  inhibition: Active
[15]
  Activity: 18.6%
[16]
  Activity: 83.2%
[17]
  Activity: 38.1%
[18]
  Activity: Dose-dependent effect
[19]
  viability at 40 µM: 51%
[20]
  inhibition: Active
[21]
  Activity: 66.7%
[22]
  Activity: 6.8%
[23]
  viability at 40 µM: 48.4%
[24]
  Activity: Dose-dependent effect
[25]
  inhibition: Active
[26]
  Activity: 46.6%
[27]
  inhibition: Active
[28]
  Activity: 34.5%
[29]
  Activity: 3%
[30]
  Activity: 7.9%
[31]
  Activity: Non-Toxic
[3]
  inhibition: Active
[4]
  inhibition: Dose-dependent effect
  IC50: 38 µM
[5]
  inhibition: Dose-dependent effect
  IC50: 41.6 µM
[6]
  inhibition: Active
[32]
  Activity: 8%
[33]
  Activity: 11.9%
[34]
  inhibition: Active
[35]
  inhibition: Active
[36]
  inhibition: Active
[37]
  Activity: 1.9%
